{"source": "patent EP1368050B1", "about": "“VIRUS DERIVED ANTIMICROBIAL PEPTIDES” (priority 2001, dated 2008)", "key": {"[1]": {"tested_on": "differentiated primary human airway epithelial cells", "assay": "Co-culture model: epithelial cell toxicity by transepithelial resistance", "assay_type": "cell-based", "conditions": "at a decrease in bacterial counts by two orders of magnitude, Figure 9", "source_text": "The antimicrobial peptides of the invention display selective toxicity to target microorganisms and minimal toxicity to mammalian cells. Determining the toxicity of the peptides claimed in this invention on mammalian cells is preferably performed using tissue culture assays. For mammalian cells, such assay methods include, inter alia, trypan blue exclusion and MTT assays (see Moore et al., 1994, Peptide Research 7:265-269). […] In addition, the disruption of the transepithelial resistance (Rte) of a cell monolayer that have formed tight junctions can be monitored. […]\nPreparation of eukaryotic cells. […] In order to release viable bacteria, trypsin/EDTA was added and these preparations were plated on standard bacteriologic media to quantify bacterial survival. Similarly prepared cells were monitored for peptide toxicity by measuring transepithelial resistance. […]\nBased on above in vitro findings, WLSA-5 (SEQ ID NO:3) was tested in a scenario that more accurately assessed its selective toxicity. […] The ability of peptide to kill bacteria is monitored as a function of viable bacteria associated with the epithelial cells after peptide exposure. […]"}, "[2]": {"tested_on": "Ca^2+-saturated calmodulin", "conditions": "host cell Ca^2+-saturated calmodulin; cited from earlier work"}, "[3]": {"tested_on": "Pseudomonas aeruginosa", "conditions": "1x10^5 colony-forming units; cited from earlier work"}, "[4]": {"tested_on": "Staphylococcus aureus", "conditions": "1x10^5 colony-forming units; cited from earlier work"}}, "note": "Residues, ends and D or L forms follow the SMILES beside them."}
{"smiles": "CC[C@H](C)[C@H](NC(=O)[C@H](C)NC(=O)[C@H](CCCNC(=N)N)NC(=O)[C@H](CS)NC(=O)[C@H](Cc1c[nH]c2ccccc12)NC(=O)[C@H](CCCNC(=N)N)NC(=O)[C@H](CCC(N)=O)NC(=O)[C@@H](NC(=O)[C@@H](NC(=O)[C@H](CCCNC(=N)N)NC(=O)[C@@H](NC(=O)[C@H](Cc1c[nH]c2ccccc12)NC(=O)[C@@H](N)CCCNC(=N)N)[C@@H](C)CC)C(C)C)C(C)C)C(=O)N[C@@H](CCCNC(=N)N)C(=O)N[C@@H](Cc1c[nH]cn1)C(=O)N[C@H](C(=O)N[C@@H](Cc1c[nH]c2ccccc12)C(=O)N[C@@H](CCCNC(=N)N)C(=O)N[C@@H](CCCNC(=N)N)C(=O)N[C@H](C(=O)N[C@@H](CCCNC(=N)N)C(=O)N[C@@H](CCC(N)=O)C(=O)NCC(=O)N[C@@H](CC(C)C)C(=O)N[C@@H](CCCNC(=N)N)C(=O)N[C@@H](CCCNC(=N)N)C(=O)N[C@@H](Cc1c[nH]c2ccccc12)C(=O)N[C@@H](CC(C)C)C(=O)N[C@@H](CCCNC(=N)N)C(=O)N[C@H](C(=O)N[C@H](C(=O)O)C(C)C)C(C)C)[C@@H](C)CC)[C@@H](C)CC", "note": "[WLSA-5] (H-RWIRVVQRWCRAIRHIWRRIRQGLRRWLRVV-OH)", "values": [{"measurement": "change in transepithelial resistance", "setting": "[1]", "result": "less than 50%"}]}
{"smiles": "CC[C@H](C)[C@H](NC(=O)[C@H](C)NC(=O)[C@H](CCCNC(=N)N)NC(=O)[C@H](CS)NC(=O)[C@H](C)NC(=O)CNC(=O)[C@H](CCC(N)=O)NC(=O)[C@@H](NC(=O)[C@@H](NC(=O)[C@H](CCC(=O)O)NC(=O)[C@@H](NC(=O)[C@@H](NC(=O)[C@@H](N)CCCNC(=N)N)C(C)C)[C@@H](C)CC)C(C)C)C(C)C)C(=O)N[C@@H](CCCNC(=N)N)C(=O)N[C@@H](Cc1c[nH]cn1)C(=O)N[C@H](C(=O)N1CCC[C@H]1C(=O)N[C@@H](CCCNC(=N)N)C(=O)N[C@@H](CCCNC(=N)N)C(=O)N[C@H](C(=O)N[C@@H](CCCNC(=N)N)C(=O)N[C@@H](CCC(N)=O)C(=O)NCC(=O)N[C@@H](CC(C)C)C(=O)N[C@@H](CCC(=O)O)C(=O)N[C@@H](CCCNC(=N)N)C(=O)N[C@H](C(=O)N[C@@H](CC(C)C)C(=O)O)[C@@H](C)CC)[C@@H](C)CC)[C@@H](C)CC", "note": "[LLP1] (H-RVIEVVQGACRAIRHIPRRIRQGLERIL-OH; N-terminus and C-terminus assumed)", "values": [{"measurement": "affinity for calmodulin", "setting": "[2]", "result": "near nanomolar affinity"}, {"measurement": "time to nearly sterilize a suspension", "setting": "[3]", "result": "≤ 60", "unit": "s"}, {"measurement": "time to nearly sterilize a suspension", "setting": "[4]", "result": "≤ 60", "unit": "s"}]}
